Test results as given in paper PMC3907537, “Evaluation of the Endothelin Receptor Antagonists Ambrisentan, Bosentan, Macitentan, and Sitaxsentan as Hepatobiliary Transporter Inhibitors and Substrates in Sandwich-Cultured Human Hepatocytes” (PLoS ONE, 2014).

Tested on: sandwich-cultured human hepatocytes
Test: ERA effect on hepatobiliary disposition of d8-taurocholate (B-CLEAR sandwich culture)
Format: cell-based
Details: 100 µM control inhibitor
Experimental: Sandwich-cultured human hepatocytes were obtained from Celsis/IVT (Baltimore, MD) or Life Technologies (Durham, NC). Donors were male (n = 3) and female (n = 1) between the ages of 31 and 62 years old. Hepatic uptake, biliary excretion and in vitro biliary clearance (Clb) were determined using the B-CLEAR® hepatocyte sandwich culture model as described by Liu et al., 1999 [34]. In this system, hepatocytes form functional bile canalicular networks while maintaining the expression and function of key uptake and efflux transporters. The canalicular system of bile pockets remains separate from the cellular culture media due to tight junctions between cells. The integrity of these tight junctions is maintained in the presence of calcium (Plus (+) buffer) while in the absence of calcium (Minus (−) buffer), these tight junctions open and release the contents of the canalicular network into the media.
A dose solution containing 2.5 µM d8-taurocholic acid (d8-TCA) was prepared in Plus (+) Buffer. Co-incubation solutions were prepared by combining d8-TCA dose solution and ERA or rifamycin-SV. Hepatocytes were washed and then conditioned for 10 min in warm Plus (+) or Minus (−) buffer with and without ERA or rifamycin-SV. Pre-incubation solutions were then removed and replaced with dose or co-incubation solutions and incubated for 10 min at 37°C. Following this 10 minute incubation, the dose or co-incubation solutions were removed and the cells were then washed three times with ice-cold Plus (+) buffer. The plates were then frozen at −80°C until processed for bioanalysis.
Study samples were stored in their original 24-well plates at −80°C until prepared for analysis. A volume of 500 µL of cell lysis solution (70∶30 methanol:water) containing 25 nM internal standard was added to each well and mixed for 20 min of mixing. The volume in each well was then transferred to a 96-well filter plate stacked on a Greiner deep well collection plate. The filter plate/collection plate was then centrifuged at 2000 rcf for 5 min. The filtrate was then evaporated to dryness under nitrogen. Samples were reconstituted in 200 µL of sample diluent (60∶40 methanol:10 mM ammonium acetate, native pH), sealed, and placed on a plate shaker for 15 min. These samples were then transferred to a Whatman 96-well 0.45 µm PVDF filter plate stacked on a Costar 3956 plate (HPLC injection plate), centrifuged at 2000 rcf for 2–3 min, and sealed with a silicon cap mat prior to LC-MS/MS analysis. d8-TCA standard spiking solutions were prepared in 50∶50 methanol:water. For a given lysate standard or control, 10 µL was added to each well of a previously frozen analytical plate. Standards representing 0.5–100 pmoles/well and QC’s at the LLQ and ULQ were prepared. These lysate standards and controls were then further processed as described above for unknown study samples. Prepared samples were filtered and analyzed by LC-MS/MS using a Shimadzu binary HPLC system (Columbia, MD) and tandem mass spectrometry using Thermo Electron TSQ® Quantum Discovery MAX™ (Waltham, MA) with an Ion Max ESI source operating in negative ion electrospray ionization mode. Results for unknowns and QCs were calculated using a standard curve based on an internal standard processing method.
Data calculations were performed using Microsoft Excel, 2010 with all values reported as mean ± standard deviation (SD). Statistical comparisons across ERA treatments were performed using analysis of variance (ANOVA) with Fisher’s PLSD post hoc analysis (Statview 5.0, SAS Institute, Cary NC); statistical significance was considered to be P<0.05. All mass values were normalized to mg protein by taking the average protein mass in the taurocholate plate determined using a BCA protein assay (Pierce Biotechnology, Rockford, IL). Cellular accumulation determined in Minus (−) buffer (Accumulation Minus (−) Buffer) represents the total mass of analyte inside the hepatocyte at the end of the incubation time period. […]

## CO[C@H]1/C=C/O[C@@]2(C)Oc3c(C)c(O)c4c(O)c(cc(O)c4c3C2=O)NC(=O)/C(C)=C\C=C\[C@H](C)[C@H](O)[C@@H](C)[C@@H](O)[C@@H](C)[C@H](OC(C)=O)[C@@H]1C [rifamycin-SV]
Untreated control 19.9±7.8
  d8-TCA Clb in the presence of control inhibitor: 4.5 ± 2.1 mL/min/kg
Untreated control 74.7%
  d8-TCA BEI in the presence of control inhibitor: 57.1%
